One molecule from patent publication US10960013B2, “J-series prostaglandin-ethanolamides as novel therapeutics for skin and/or oral disorders” (East Carolina University, priority 2016, dated 2021) can be followed below.

One assay has as its system CHOP10. Nature of the assay: CHOP10 expression (ER stress) in excised tumor sections. The assay is classed as in vivo, C57BL/6 mice. Particulars: 0.5 mg/kg for 5 days. How it is done: (§1) To assess the in vivo antineoplastic action of 15dPMJ2, the subcutaneous mouse tumor model was utilized. Melanoma cells were subcutaneously implanted in the flank region of C57BL/6 mice and treated with 0.5 mg/kg 15dPMJ2, vehicle [0.1% DMSO in phosphate buffered saline (PBS)], or were untreated. […] To determine if 15dPMJ2 induced ER stress the expression of CHOP10 was detected in the tumor sections.

The subject of assay [1] is tumorigenic (JWF2) and non-tumorigenic (HaCaT) cells. Nature of the assay: Cell viability (MTS) of tumorigenic and non-tumorigenic keratinocytes treated with 15dPMJ2. Format: cell-based. Particulars: 12 hours. On the procedure:
Tumorigenic and non-tumorigenic keratinocytes were treated with different concentrations of 15dPMJ2, vehicle, or were untreated for 12 hours. Cell viability was detected by conducting MTS experiments. Data represent the mean±SEM of three independent experiments and are expressed as the percent of the untreated cells. *P<0.01.
as §1

Assay [2] deals with Melanoma cells subcutaneously implanted in the flank region of C57BL/6 mice. Nature of the assay: Subcutaneous mouse tumor model, tumor weight. Format: in vivo. Conditions: 0.5 mg/kg for 5 days; compared to vehicle and untreated animals; P<0.01. How it is done: Tumors grown in C57BL/6 mice were either untreated (UT), vehicle treated (VEH), or treated with 0.5 mg/kg 15dPMJ2 for 5 days. Tumor weights were determined. #P<0.01 compared to untreated; *P<0.01 compared to vehicle treated (one-way ANOVA with Tukey's post-hoc test).
as §1

“Also recorded” adds a separate entry of the source.

Turning to `CCCCC/C=C/C=C1/C(=O)C=CC1C/C=C/CCCC(=O)NCCO` (stereo not shown) [15dPMJ2, 15-deoxy Δ^12,14-prostagladin J2-ethanolamide], the “CHOP10 expression in the tumors (ER stress)” value in the assay on CHOP10 is “markedly increased CHOP10 expression; also recorded: increases ER stress”. Moreover, the “toxicity towards tumorigenic keratinocytes relative to non-tumorigenic keratinocytes” value in assay [1] (at 5 μM, JWF2 vs HaCaT, MTS cell viability) was determined as 4 fold. Moreover, the “selective toxicity (cell viability, tumorigenic vs non-tumorigenic keratinocytes)” value in assay [1] (different concentrations, MTS) is “selectively toxic”. The “tumor weight / solid tumor growth” value in assay [2] is on record as “statistically significant reduction in tumor weight; also recorded: inhibits solid tumor growth”.
